Data as given in US11034717B2, “Farnesoid X receptor modulators” (Intercept Pharmaceuticals, Inc., priority 2015, dated 2021).
Where two headings read alike, the source gives them in different places.

How the values were obtained:
[1] = target: T1, hTGR5 (Homo sapiens (Human), UniProt Q8TDU6); experiment: HTR-FRET intracellular cAMP assay in NCI-H716 cells; assay type: cell-based; settings: Table 2
[2] = target: T1, hTGR5; experiment: Cross species TGR5 activity, CHO cells, human; assay type: cell-based
[3] = target: mTGR5 (Mus musculus (Mouse), UniProt Q80SS6); experiment: Cross species TGR5 activity, CHO cells, mouse; assay type: cell-based
[4] = target: rTGR5 (Rattus norvegicus (Rat), UniProt Q80T02); experiment: Cross species TGR5 activity, CHO cells, rat; assay type: cell-based
[5] = system: dTGR5; experiment: Cross species TGR5 activity, CHO cells, dog; assay type: cell-based
[6] = system: nuclear receptors LXRP, PXR, CAR, PPARα, PPARγ, RAR, RARα, VDR, TR, PR, RXR, GR, and ER; experiment: Nuclear receptor selectivity profile (AlphaScreen); assay type: biochemical; settings: for Activation of nuclear receptor panel, agonist mode: dose response to 200 μM; for Activity on nuclear receptor panel, antagonist mode: fixed concentration at 10 μM
Method: Using the AlphaScreen assay, the selectivity of a compound of the invention against the following nuclear receptors involved in the metabolic pathways can be evaluated: LXRP, PXR, CAR, PPARα, PPARα, PPARγ, RAR, RARα, VDR, TR, PR, RXR, GR, and ER.
Compounds L1, 3, 5, 6 and 7 were tested against the panel of available nuclear receptor in both agonist and antagonist mode.

[7] = system: FXR target genes: BSEP, SHP, OSTβ and CYP7A1; experiment: FXR target gene panel, quantitative RT-PCR in HepG2 cells; assay type: cell-based; settings: stimulation for 18 hours
Method: To evaluate the capacity of a compound of the invention to modulate FXR target genes, quantitative RT-PCR assays are performed. HepG2 cells are selected as a relevant cell line to determine whether a compound of the invention can regulate the endogenous FXR genetic network. The ability of a compound of the invention to induce FXR target genes is assessed by isolating total RNA from cells treated overnight with 1 μM of compounds A, B, and a compound of the invention.
FXR regulates the expression of several target genes involved in BA homeostasis. Briefly, FXR plays a central role in several metabolic pathways, including i.e., lipid metabolism, bile-acids metabolism, and carbohydrate metabolism. Regarding gene expression profiling, the genes encoding proteins involved in lipid metabolism include, e.g., APOCII, APOE, APOAI, SREBP-1C, VLDL-R, PLTP, and LPL; the genes encoding proteins involved in bile-acids metabolism include, e.g., OSTα/β, BSEP, MRP2, SHP, CYP7A1, FGF19, SULT2A1, and UGT2B4; and the genes encoding proteins involved in carbohydrate metabolism include, e.g., PGCla, PEPCK, and GLUT2. FXR target genes: BSEP, SHP, OSTβ and CYP7A1 were evaluated following stimulation of Compounds 3, 5, 6, and 7 on HepG2 cells for 18 hours. Compound L1 was used as a control.

[8] = system: HepG2 cells; experiment: In-vitro cytotoxicity, ATP content; assay type: cell-based; settings: Table 5B, HepG2
Description: To evaluate in-vitro cytotoxicity of a compound of the invention, two different assay methods are employed. The assays evaluate cell viability by measuring ATP levels and cytotoxicity by measuring LDH release. […] It has been called the “molecular unit of currency” when it comes to intracellular energy transfer.
(§1) An additional method to determine the viability of cells is to detect the integrity of the membrane that defines the cellular compartmentalization. Measuring the leakage of components out of the cytoplasm, in damaged cell membranes, indicates loss of membrane integrity, and LDH release is the method used to determine common toxicity in cells. HepG2 cells are treated with a compound of the invention, and serial dilutions are performed. LCA dilutions are added to the plated cells as assay controls together with no-cell and untreated cells. The assay is performed in triplicate for each test compound concentration.

[9] = system: HepG2 cells; experiment: In-vitro cytotoxicity, membrane integrity (LDH release); assay type: cell-based
Description: (§2) To evaluate in-vitro cytotoxicity of a compound of the invention, two different assay methods are employed. The assays evaluate cell viability by measuring ATP levels and cytotoxicity by measuring LDH release. Adenosine Triphosphate (ATP) nucleotide represents the source of energy at the basic molecular level, as it is a multifunctional molecule that is used in every cell as a coenzyme and is an integral part of the mitochondrial DNA (Kangas, et al., Medical Biology, 1984, 62, 338-343; Crouch, et al., J Immunol. Methods, 1993, 160, 81-88; and Petty, et al., J Biolumin. Chemilumin. 1995, 10, 29-34). It has been called the “molecular unit of currency” when it comes to intracellular energy transfer.
as §1

[10] = target: CYP1A2 (Homo sapiens (Human), UniProt P05177); experiment: CYP450 inhibition, fluorescent substrate, recombinant baculosomes; assay type: in vitro ADME
Method: (§3) To evaluate the potential of a compound of the invention for drug-drug interactions, the six main CYP450 isoforms (CYP1A2, CYP2C9, CYP2C19, CYP2D6, CYP2E1, CYP3A4) are investigated (Obach, et al., J Pharmacol. Exp. Ther, 2006, 316, 336-348).
(§4) To determine interaction between a compound of the invention and cytochrome P450 enzymes, the compound of the invention is analyzed by its capacity to inhibit (or not) the production of a fluorescent signal, using recombinant CYP450 proteins (baculosomes; Invitrogen), substrates and inhibitors (Bidstrup, et al., Br J Clin. Pharmacol, 2003, 56, 305-14). As a positive control, a selective inhibitor for each CYP450 isoform is tested in the same plate.

[11] = target: CYP2C19 (Homo sapiens (Human), UniProt P33261); experiment: as above; assay type: in vitro ADME; settings: read-out: CYP2C19 IC50
Method: as §3, §4

[12] = target: CYP2C9 (Homo sapiens (Human), UniProt P11712); experiment: as above; assay type: in vitro ADME; settings: read-out: CYP2C9 IC50
Method: as §3, §4

[13] = target: CYP2D6 (Homo sapiens (Human), UniProt P10635); experiment: as above; assay type: in vitro ADME; settings: read-out: CYP2D6 IC50
Method: as §3, §4

[14] = target: CYP2E1 (Homo sapiens (Human), UniProt P05181); experiment: as above; assay type: in vitro ADME; settings: read-out: CYP2E1 IC50
Method: as §3, §4

[15] = target: CYP3A4 (Homo sapiens (Human), UniProt P08684); experiment: as above; assay type: in vitro ADME
Method: as §3, §4

[16] = target: hERG potassium channel (Homo sapiens (Human), UniProt Q12809); experiment: biochemical
Description: The assay is based on the assumption that the hERG potassium channel activity contributes to the resting membrane potential in permanently transfected cells, and thus a block of hERG channels should result in a depolarization of the cell membrane. The assay is designed to identify potential hERG channel blockers by producing data that accurately correlates with patch-clamp electrophysiology studies.
Membrane preparations from Chinese hamster ovary cells stably transfected with hERG potassium channel are used to evaluate the potential inhibitory effect of a compound of the invention on this channel using the Predictor™ fluorescence polarization assay. Reduction of membrane polarization as a result of inhibition of the hERG potassium channel is directly correlated with a reduction of the fluorescence polarization (FP).
An assay window more than 100 mP (millipolarization) is considered good. The non-linear regression curves are obtained by GraphPad Prism (GraphPad Software Inc.) analysis, to calculate the IC50 values.

[17] = 1-octanol-water partition coefficient of ionized species; assay type: physicochemical
Method: (§5) Physiochemical properties of a compound of the invention such as water solubility, critical micellar concentration, surface tension, and LogPA were determined using methods known in the art.

[18] = In-vitro cytotoxicity, membrane integrity (LDH release); assay type: cell-based; settings: human; HepG2; read-out: Membrane Integrity (LDH measure) LC50
Description: as §2, §1

[19] = Critical micellar concentration; assay type: physicochemical; settings: determined in […] NaCl water solution
Method: as §5

[20] = Blue substrate, read-out: CYP3A4 (Blue substrate) IC50
[21] = Green substrate, read-out: CYP3A4 (Green substrate) IC50

rTGR5, sequence (Q80T02 whole entry): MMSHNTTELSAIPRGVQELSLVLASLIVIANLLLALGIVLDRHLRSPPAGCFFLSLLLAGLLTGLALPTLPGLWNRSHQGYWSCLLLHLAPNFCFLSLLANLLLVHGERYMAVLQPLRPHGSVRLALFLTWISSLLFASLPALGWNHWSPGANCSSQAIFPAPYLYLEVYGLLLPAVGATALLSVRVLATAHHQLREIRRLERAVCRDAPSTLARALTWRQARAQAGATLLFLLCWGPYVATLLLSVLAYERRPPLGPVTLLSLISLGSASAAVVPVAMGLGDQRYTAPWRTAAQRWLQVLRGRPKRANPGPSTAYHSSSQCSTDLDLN
hERG potassium channel, sequence (Q12809 whole entry): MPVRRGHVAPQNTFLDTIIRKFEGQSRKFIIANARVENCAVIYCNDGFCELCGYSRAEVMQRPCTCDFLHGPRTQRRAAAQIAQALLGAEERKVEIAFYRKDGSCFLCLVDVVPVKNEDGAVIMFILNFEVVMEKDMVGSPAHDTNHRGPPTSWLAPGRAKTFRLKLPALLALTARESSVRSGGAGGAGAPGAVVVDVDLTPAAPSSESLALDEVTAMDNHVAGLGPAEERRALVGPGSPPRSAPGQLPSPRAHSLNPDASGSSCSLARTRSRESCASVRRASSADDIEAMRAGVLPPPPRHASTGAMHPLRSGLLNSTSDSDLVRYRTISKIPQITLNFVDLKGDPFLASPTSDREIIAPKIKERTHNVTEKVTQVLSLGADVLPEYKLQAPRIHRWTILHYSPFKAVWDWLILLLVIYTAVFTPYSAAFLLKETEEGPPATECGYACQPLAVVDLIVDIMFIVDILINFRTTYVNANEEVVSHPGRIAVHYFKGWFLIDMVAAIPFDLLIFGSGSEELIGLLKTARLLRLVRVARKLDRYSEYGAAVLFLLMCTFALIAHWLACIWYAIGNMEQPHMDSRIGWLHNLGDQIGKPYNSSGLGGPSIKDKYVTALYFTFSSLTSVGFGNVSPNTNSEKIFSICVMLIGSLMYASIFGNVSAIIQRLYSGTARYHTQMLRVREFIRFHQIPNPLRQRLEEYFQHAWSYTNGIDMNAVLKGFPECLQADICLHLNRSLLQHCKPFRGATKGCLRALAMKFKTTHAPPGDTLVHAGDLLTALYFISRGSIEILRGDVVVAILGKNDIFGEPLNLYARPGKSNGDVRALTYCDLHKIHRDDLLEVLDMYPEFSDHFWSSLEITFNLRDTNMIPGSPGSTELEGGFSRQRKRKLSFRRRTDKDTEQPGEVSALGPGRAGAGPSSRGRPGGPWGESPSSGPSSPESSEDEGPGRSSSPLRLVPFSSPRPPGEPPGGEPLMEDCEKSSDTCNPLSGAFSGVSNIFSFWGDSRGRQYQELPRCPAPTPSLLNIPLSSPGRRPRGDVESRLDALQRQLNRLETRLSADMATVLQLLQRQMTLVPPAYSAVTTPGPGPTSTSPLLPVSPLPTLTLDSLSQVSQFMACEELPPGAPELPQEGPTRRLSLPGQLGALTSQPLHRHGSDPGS
mTGR5, sequence (Q80SS6 whole entry): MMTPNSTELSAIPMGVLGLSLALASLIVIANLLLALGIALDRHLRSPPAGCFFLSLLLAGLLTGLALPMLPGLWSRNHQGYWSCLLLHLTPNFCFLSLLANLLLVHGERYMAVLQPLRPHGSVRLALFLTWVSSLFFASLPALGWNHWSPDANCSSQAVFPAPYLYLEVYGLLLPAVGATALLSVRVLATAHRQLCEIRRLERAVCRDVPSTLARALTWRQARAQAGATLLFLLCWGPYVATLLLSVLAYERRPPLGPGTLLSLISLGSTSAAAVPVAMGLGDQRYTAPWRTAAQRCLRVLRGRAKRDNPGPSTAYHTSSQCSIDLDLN
CYP2D6, sequence (P10635 whole entry): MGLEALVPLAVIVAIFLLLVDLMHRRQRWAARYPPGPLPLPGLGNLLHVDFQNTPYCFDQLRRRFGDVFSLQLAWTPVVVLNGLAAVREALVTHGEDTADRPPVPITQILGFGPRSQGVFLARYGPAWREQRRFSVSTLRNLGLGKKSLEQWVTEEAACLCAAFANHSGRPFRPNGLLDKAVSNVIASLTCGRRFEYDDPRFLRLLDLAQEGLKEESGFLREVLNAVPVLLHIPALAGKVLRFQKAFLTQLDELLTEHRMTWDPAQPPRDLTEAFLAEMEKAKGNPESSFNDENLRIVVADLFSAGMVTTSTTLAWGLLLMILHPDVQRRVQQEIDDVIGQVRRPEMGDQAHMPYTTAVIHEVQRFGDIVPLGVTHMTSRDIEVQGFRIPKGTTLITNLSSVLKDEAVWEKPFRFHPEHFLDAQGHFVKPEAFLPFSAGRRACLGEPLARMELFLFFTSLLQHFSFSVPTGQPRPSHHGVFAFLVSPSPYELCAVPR
CYP3A4, sequence (P08684 whole entry): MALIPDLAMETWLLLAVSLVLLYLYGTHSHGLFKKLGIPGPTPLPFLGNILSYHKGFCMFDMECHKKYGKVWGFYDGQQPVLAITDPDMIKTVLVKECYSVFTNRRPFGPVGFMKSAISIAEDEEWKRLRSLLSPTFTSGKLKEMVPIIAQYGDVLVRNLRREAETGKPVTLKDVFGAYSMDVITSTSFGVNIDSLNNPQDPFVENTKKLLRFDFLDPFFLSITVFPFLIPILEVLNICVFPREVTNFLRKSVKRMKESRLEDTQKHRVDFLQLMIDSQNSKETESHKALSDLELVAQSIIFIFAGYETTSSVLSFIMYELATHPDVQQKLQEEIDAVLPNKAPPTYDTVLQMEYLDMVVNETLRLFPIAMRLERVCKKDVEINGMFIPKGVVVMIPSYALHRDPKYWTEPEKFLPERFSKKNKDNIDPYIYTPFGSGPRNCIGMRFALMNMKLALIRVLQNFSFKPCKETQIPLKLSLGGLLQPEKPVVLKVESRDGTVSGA
T1 sequence (Q8TDU6 whole entry): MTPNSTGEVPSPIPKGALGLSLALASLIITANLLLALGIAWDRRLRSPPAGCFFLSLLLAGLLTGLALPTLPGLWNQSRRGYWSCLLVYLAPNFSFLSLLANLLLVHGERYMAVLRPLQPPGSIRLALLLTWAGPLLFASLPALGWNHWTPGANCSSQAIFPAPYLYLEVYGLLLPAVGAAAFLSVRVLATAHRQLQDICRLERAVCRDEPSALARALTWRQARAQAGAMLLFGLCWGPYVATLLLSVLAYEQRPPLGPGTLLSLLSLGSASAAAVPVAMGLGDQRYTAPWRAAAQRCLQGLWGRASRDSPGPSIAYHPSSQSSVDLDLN
CYP2C9, sequence (P11712 whole entry): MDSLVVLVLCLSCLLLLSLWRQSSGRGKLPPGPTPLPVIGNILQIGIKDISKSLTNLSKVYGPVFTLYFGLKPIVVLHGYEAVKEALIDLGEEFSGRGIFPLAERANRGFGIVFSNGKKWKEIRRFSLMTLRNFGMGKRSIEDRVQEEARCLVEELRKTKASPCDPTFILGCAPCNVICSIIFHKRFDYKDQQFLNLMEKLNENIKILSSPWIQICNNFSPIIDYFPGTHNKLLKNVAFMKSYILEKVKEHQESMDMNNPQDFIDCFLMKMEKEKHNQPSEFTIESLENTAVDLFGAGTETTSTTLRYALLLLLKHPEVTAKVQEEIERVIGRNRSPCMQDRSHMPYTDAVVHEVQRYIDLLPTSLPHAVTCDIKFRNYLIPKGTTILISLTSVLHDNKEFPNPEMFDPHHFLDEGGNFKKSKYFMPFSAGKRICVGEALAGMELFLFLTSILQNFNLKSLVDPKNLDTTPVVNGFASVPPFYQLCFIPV
CYP2C19, sequence (P33261 whole entry): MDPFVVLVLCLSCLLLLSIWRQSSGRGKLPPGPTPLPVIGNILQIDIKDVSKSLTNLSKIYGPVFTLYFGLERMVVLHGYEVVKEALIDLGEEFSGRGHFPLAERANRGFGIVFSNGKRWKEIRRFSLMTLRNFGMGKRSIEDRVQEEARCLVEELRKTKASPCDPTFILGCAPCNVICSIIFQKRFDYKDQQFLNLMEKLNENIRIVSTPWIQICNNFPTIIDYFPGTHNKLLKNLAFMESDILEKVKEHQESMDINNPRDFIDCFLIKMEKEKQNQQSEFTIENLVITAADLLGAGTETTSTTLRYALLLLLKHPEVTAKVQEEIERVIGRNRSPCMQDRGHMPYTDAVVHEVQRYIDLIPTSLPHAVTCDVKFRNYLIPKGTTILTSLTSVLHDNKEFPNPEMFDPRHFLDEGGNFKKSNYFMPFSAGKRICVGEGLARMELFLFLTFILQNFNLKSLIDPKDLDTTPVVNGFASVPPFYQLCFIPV
CYP1A2, sequence (P05177 whole entry, canonical isoform): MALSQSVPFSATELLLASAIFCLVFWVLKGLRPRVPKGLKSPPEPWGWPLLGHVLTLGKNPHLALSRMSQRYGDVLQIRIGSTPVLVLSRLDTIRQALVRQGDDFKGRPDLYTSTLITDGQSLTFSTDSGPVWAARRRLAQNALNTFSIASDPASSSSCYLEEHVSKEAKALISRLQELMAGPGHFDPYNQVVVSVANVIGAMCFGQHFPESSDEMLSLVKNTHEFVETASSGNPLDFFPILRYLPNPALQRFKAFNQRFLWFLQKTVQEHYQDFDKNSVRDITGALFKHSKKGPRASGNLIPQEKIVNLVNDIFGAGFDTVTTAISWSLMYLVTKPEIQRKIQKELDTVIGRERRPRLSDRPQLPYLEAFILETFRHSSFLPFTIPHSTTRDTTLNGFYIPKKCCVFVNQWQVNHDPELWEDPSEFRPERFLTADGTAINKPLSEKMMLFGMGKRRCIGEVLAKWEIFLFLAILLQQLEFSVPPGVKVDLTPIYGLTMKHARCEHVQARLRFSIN

SMILES	HTR-FRET (cAMP) Human TGR5 EC50 [1]	hTGR5 CHO EC50 [2]	rTGR5 CHO EC50 [4]	EC50 [5] [µM]	Activation of nuclear receptor panel, agonist mode [6]	Activity on nuclear receptor panel, antagonist mode [6]	Modulation of FXR target genes BSEP, SHP, OSTβ and CYP7A1 [7]	ATP Content EC50 [8]	Membrane Integrity (LDH measure) LC50 [9]	IC50 [10] [µM]	IC50 [11] [µM]	IC50 [12] [µM]	IC50 [13] [µM]	IC50 [14] [µM]	IC50 [15, 20] [µM]	IC50 [15, 21] [µM]	IC50 [16] [µM]	hERG potassium channel inhibition (in words) [16]	LogPA−: 1-octanol-water partition coefficient as ionized species [17]	mTGR5 CHO EC50 [3]	also measured
CC[C@H]1[C@@H](O)C2C3CC[C@H]([C@H](C)CCc4nc(=O)o[nH]4)[C@@]3(C)C[C@H](O)C2[C@@]2(C)CC[C@@H](O)C[C@@H]12 (stereo partly drawn) [Compound 7, 3α,7α,11β-Trihydroxy-6α-ethyl-23-(1,2,4-oxadiazol-5-oxo-3-yl)-24-nor-5β-cholane]	No activity	No activity	No activity	7.6 ± 0.01	Neither compound activated any of the receptors	Neither compound activated any of the receptors	significantly bind to FXR in hepatic cells modulating FXR target genes	No toxicity	No toxicity	> 10	> 10	> 10	> 10	> 10	> 10	> 10	> 100	Compounds L1, 3, 5, 6 and 7 did not inhibit hERG potassium channel.	2.0		EC50 [3]: 9.5 ± 2 µM
C[C@H](CCC(=O)O)[C@H]1CC[C@H]2[C@@H]3CC[C@@H]4C[C@H](O)CC[C@]4(C)[C@H]3CC[C@]12C [LCA, lithocholic acid, reference compound]																					EC50 ([8]; Homo sapiens): 75 ± 5 µM; CC50 [18]: 100 ± 5 µM
CC[C@H]1[C@@H](O)C2C3CC[C@H]([C@H](C)CCC(=O)O)[C@@]3(C)C[C@H](O)C2[C@@]2(C)CC[C@@H](O)C[C@@H]12 (stereo partly drawn) [Compound L1, reference compound]			No activity		Neither compound activated any of the receptors	Neither compound activated any of the receptors		No toxicity	No toxicity	> 10	> 10	> 10	> 10	> 10	> 10	> 10			0.84	No activity	dTGR5 CHO EC50 [5]: No activity; hERG potassium channel inhibition (in words) ([16]; Table 7 footnote): Compounds L1, 3, 5, 6 and 7 did not inhibit hERG potassium channel.; IC50 ([16]; read-out: hERG inhibition IC50, Table 7): > 100 µM
CC[C@H]1[C@@H](O)C2C3CC[C@H]([C@H](C)Cc4nc(=O)o[nH]4)[C@@]3(C)C[C@H](O)C2[C@@]2(C)CC[C@@H](O)C[C@@H]12 (stereo partly drawn) [Compound 6, 3α,7α,11β-trihydroxy-6α-ethyl-22-(1,2,4-oxadiazol-5-oxo-3-yl)-23,24-bisnor-5β-cholane]	No activity	No activity	No activity	1.5 ± 0.3	Neither compound activated any of the receptors	Neither compound activated any of the receptors	significantly bind to FXR in hepatic cells modulating FXR target genes	No toxicity	No toxicity	> 10	> 10	> 10	> 10	> 10	> 10	> 10	> 100	Compounds L1, 3, 5, 6 and 7 did not inhibit hERG potassium channel.	1.7	No activity	CMC: Critical Micellar Concentration [19]: 28 mM
